{"source": "patent US20080234132A1", "about": "“Microcin B17 Analogs And Methods For Their Preparation And Use” (priority 2004, published 2008)", "key": {"[1]": {"test_system": "Arabidopsis thaliana ecotype Columbia plants", "test": "Effects on A. thaliana seedlings and plants", "format": "in vivo", "details": "Table 5-C", "experimental": "The microcin derivatives were tested for efficacy in planta against Arabidopsis thaliana ecotype Columbia according to known methods (see Wall et al., 2004). Seeds were germinated on sterile media containing the appropriate peptide and the effects were observed over a three week period. […] In […] seeds, such as A. thaliana, during imbibition the quiescent seed rapidly resumes metabolic and respiratory activity. One of the first steps, as part of this process, is the initiation of mitochondrial DNA synthesis which requires DNA gyrase and which may explain the exquisite sensitivity of the germinating seeds to Peptides 1 and 2.\nThe leaf tissue initially turned yellow, followed by rapid necrosis of the tissue (see FIG. 32). […] The high hydrophility of Peptide 1 may preferentially allow the compound to readily diffuse through the leaf cuticle and epidermis to the mesophyll and phloem below.\nThe heterocyclic compounds were also spotted onto the leaves of 4 week old, tissue culture grown Arabidopsis thaliana ecotype Columbia plants (see FIG. 34, panels A-1). […] The browning and necrosis diffused through the full thickness of the leaf over the next 60 minutes (see FIG. 34, panel F) and spread towards the meristem (see FIG. 34, panels E, F, H). Complete necrosis of the meristem and newly emerged leaves, where organellar replication takes place, was complete within 24 hours (see FIG. 34, panel F)."}, "HT-29 cells": {"test_system": "HT-29 cells", "test": "MTT cell viability assay, HT-29", "format": "cell-based, human", "details": "cell reads on: Active", "description": "Human cell cultures were initiated from frozen cell stocks (the gift of Dr J. Gavrilovic, UEA). […] Both human cell lines form adherent cultures and were maintained at 37° C. in T25 culture vessels as 10 mL cultures in CO2 Independent Media containing 10% foetal bovine serum (EU approved), 4 mM L-glutamine, penicillin/streptomycin (Invitrogen). […] Media was renewed every three days.\nAfter incubation with MTT and solubilization, the resulting coloured solution is quantified using a scanning spectrophotometer. […] Cell viability was then determined by addition of MTT reagent (20 μL) in each well, as per manufacturer's instructions and incubated for a further 4 hours. Solubilization solution (100 μL) was added per well and the plates incubated overnight at 37° C. The plates were read in a spectrophotometer (scanning from 500-650 nm, signal peak at 570 nm)."}, "Human topoisomerase IIα [2]": {"molecular_target": "T1, Human topoisomerase IIα (Homo sapiens, UniProt P11388)", "T1 sequence (P11388 whole entry)": "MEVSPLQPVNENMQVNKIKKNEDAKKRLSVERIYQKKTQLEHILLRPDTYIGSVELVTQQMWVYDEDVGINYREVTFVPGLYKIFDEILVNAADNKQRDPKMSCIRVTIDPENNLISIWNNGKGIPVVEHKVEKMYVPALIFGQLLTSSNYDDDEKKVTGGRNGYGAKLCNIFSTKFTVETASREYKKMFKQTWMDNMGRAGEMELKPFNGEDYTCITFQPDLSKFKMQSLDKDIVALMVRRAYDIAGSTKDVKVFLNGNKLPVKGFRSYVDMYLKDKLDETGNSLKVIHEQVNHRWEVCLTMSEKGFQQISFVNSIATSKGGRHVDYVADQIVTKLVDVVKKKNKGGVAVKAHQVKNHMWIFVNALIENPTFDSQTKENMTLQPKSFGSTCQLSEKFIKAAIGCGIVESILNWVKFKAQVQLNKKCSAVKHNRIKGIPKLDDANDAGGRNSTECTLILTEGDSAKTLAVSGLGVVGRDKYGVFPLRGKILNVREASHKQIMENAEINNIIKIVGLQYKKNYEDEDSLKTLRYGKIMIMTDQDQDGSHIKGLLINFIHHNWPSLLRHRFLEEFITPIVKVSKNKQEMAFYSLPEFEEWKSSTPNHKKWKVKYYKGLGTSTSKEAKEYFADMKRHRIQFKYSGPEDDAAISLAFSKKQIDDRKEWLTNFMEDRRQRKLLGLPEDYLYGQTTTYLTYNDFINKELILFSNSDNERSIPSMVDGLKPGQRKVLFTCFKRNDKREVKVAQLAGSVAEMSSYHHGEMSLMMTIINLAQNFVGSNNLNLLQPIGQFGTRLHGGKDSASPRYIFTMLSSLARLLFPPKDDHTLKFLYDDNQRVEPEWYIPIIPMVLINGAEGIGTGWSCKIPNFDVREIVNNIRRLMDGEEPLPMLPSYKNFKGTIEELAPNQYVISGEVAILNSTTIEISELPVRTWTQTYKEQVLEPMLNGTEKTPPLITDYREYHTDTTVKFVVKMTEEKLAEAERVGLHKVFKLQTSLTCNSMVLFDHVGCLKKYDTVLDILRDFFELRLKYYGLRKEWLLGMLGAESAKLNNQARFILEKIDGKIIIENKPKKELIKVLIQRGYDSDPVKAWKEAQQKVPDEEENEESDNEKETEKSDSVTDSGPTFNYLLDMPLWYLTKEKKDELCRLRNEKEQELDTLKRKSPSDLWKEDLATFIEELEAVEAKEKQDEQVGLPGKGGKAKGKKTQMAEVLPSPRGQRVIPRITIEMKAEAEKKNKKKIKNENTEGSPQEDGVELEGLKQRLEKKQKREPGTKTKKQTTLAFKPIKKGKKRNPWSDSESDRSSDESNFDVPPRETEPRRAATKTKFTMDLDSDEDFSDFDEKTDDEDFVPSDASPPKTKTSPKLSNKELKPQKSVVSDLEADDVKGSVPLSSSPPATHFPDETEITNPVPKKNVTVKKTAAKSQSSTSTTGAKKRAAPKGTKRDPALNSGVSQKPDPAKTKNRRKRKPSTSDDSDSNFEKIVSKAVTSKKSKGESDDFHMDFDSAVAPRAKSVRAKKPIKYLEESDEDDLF", "test": "Human Topoisomerase IIα decatenation assay", "format": "biochemical", "set-up": "purchased TopoGEN Inc. (Port Orange, Fla., USA)", "details": "read-out: Topo IIα Human, D (decatenation reaction) IC50", "experimental": "(§1) Human Topoisomerase IIα-mediated relaxation assays and decatenation assays were performed as per the manufacturer's instructions in a total of 20 μL. Relaxation assays contained Topoisomerase IIα (4.3 nM), 50 mM Tris.HCl pH 8,120 mM KCl, 10 mM MgCl2, 0.5 mM DTT, 0.5 mM ATP, 4.6 nM of supercoiled pBR322 DNA, and inhibitor where appropriate. Decatenation assays substituted the supercoiled DNA with 200 ng catenated kinetoplast DNA.\n(§2) All in vitro reactions were incubated at 37° C. for 30 minutes. The DMSO concentration in each reaction was kept constant at 3.33%. Reactions were quenched with the addition of an equal volume of phenol/chloroform/isoamyl alcohol (25:24:1) and one tenth volume of loading buffer containing 40% sucrose, 100 mM Tris.HCl pH 7.5, 100 mM EDTA, 2 mg/mL bromophenol blue. The proteins were precipitated by vortexing, followed by centrifugation for 5 minutes at 16 000 g. The aqueous phase was loaded onto 1% agarose gels in Tris-acetate and were electrophoresed at 60 V for three hours in Tris-acetate buffer. The gels were stained in 1 μg/mL ethidium bromide. The gels were visualised using UV light and were documented and analysed using Syngene software."}, "Human topoisomerase IIα [3]": {"molecular_target": "T1, Human topoisomerase IIα", "test": "Human Topoisomerase IIα-mediated relaxation assay", "format": "biochemical", "set-up": "purchased TopoGEN Inc. (Port Orange, Fla., USA)", "details": "read-out: Topo IIα Human, R (relaxation reaction) IC50", "experimental": "as §1, §2"}, "E. coli": {"test_system": "E. coli", "test": "In vivo E. coli activity (Table 5-C)", "format": "cell-based", "details": "cell reads on: Active", "experimental": "In vivo activity was tested using the bioassay developed by Sinha Roy, 1999, with some modifications. The Microcin-sensitive E. coli DH5α was used as the indicator strain. Lawns of cells were prepared by spreading 100 μL of a 10 mL LB culture grown at 37° C. overnight mixed with 3 mL of LSS, on LB+agar (10 g/L) plates. […] The plates were incubated at 37° C. overnight and halos of growth inhibition were qualitatively analyzed by determining their diameters (see FIG. 9).\nLawns of cells were prepared by spreading, on top of a LB+Agar plate, 3 ml of melted LSS medium (half-agar strength: 0.3 g Agar/50 ml LB) inoculated with 100 μl of a 10 ml LB overnight culture of E. coli cells grown at 37° C. Halo assays with MccB17 generally used a DH5α strain (Novagen) but the inventors used the standard E. coli strain (K12) because it is from this strain that the microcin B17-resistant mutant W751R was obtained. […] The plates were incubated at 37° C. overnight and growth inhibition was qualitatively analysed by measuring the diameter of each halo.\nHaloassays were performed as described above."}, "E. coli Topoisomerase IV": {"molecular_target": "E. coli Topoisomerase IV (Escherichia coli, UniProt P0AFI2+P20083)", "sequence (P20083 whole entry)": "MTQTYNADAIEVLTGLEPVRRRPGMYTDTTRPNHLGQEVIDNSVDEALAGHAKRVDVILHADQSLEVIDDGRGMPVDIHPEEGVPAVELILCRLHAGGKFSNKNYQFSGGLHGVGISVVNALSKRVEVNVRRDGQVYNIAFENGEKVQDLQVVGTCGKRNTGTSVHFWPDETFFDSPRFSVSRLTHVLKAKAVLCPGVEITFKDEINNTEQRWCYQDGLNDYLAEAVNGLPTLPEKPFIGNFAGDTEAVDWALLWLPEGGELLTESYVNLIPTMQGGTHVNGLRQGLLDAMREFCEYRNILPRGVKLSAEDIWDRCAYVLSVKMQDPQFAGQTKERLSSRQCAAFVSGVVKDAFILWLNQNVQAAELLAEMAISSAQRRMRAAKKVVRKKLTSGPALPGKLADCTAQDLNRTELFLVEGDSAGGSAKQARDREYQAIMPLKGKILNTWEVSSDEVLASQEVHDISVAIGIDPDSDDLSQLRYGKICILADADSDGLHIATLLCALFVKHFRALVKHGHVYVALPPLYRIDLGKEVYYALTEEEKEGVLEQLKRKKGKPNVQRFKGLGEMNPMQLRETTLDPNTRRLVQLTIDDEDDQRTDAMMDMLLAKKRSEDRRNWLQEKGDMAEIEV", "sequence (P0AFI2 whole entry)": "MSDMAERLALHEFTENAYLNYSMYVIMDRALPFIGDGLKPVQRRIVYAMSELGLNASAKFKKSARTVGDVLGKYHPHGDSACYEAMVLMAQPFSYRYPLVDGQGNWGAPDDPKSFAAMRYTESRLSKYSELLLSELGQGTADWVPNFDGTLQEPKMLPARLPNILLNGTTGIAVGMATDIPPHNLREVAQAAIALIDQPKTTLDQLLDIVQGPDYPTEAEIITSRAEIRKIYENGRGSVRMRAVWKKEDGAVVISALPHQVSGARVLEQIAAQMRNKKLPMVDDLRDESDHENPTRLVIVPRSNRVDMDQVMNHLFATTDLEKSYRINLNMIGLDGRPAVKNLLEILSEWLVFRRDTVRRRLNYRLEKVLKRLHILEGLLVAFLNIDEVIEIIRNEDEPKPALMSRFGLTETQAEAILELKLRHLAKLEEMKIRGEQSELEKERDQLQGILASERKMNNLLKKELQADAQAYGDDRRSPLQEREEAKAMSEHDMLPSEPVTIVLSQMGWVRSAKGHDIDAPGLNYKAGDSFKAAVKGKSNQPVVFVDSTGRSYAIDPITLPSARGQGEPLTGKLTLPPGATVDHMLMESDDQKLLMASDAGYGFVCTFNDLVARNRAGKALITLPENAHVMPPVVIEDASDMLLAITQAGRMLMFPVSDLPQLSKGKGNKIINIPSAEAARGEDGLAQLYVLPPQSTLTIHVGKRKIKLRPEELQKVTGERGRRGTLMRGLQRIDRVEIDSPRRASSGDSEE", "test": "Topoisomerase IV-mediated decatenation assay", "format": "biochemical", "set-up": "purchased John Innes Enterprises", "experimental": "Topoisomerase IV-mediated relaxation assays and decatenation assays were performed as previously described (see Peng and Marians, 1993). Relaxation assays contained topoisomerase IV (20 nM), 40 mM Tris.HCl pH 7.5 at 30° C., 6 mM MgCl2, 10 mM DTT, 1 mM spermidine.HCl, 20 mM KCl, 1 mM ATP, 0.5 mg/mL BSA, 4.6 nM of supercoiled pBR322 DNA and inhibitor where appropriate. Decatenation assays contained topoisomerase IV (4 nM), 40 mM Tris HCl pH 7.5 at 30° C., 6 mM MgCl2, 10 mM DTT, 1 mM spermidine.HCl, 100 mM potassium glutamate, 0.5 mM ATP, 0.5 mg/mL BSA, 200 ng of kinetoplast DNA, and inhibitor where appropriate.\nas §2"}}, "data": [{"molecule": "CC(C)(C)OC(=O)NCc1nc(C(=O)O)co1", "note": "[#6]", "values": [{"measurement": "In vivo Plants, P (whole plants, expanded Arabidopsis leaves)", "setting": "[1]", "result": "P > 300 μM"}, {"measurement": "In vivo HT29 Cells activity", "setting": "HT-29 cells", "result": "Not"}, {"measurement": "IC50", "setting": "Human topoisomerase IIα [2]", "result": "> 250", "unit": "µM"}, {"measurement": "IC50", "setting": "Human topoisomerase IIα [3]", "result": "> 250", "unit": "µM"}, {"measurement": "In vivo E. coli activity, up to 400 μM", "setting": "E. coli", "result": "Not"}, {"measurement": "Decatenation activity of topoisomerase IV, sensitivity", "setting": "E. coli Topoisomerase IV", "result": "albeit weakly"}]}]}
